Data published in patent publication US20180332881A1, “PRETERM INFANT FORMULA […] AND USES THEREOF” (Mead Johnson Nutrition Company, priority 2017, published 2018).

System: oligodendrocyte precursor cells (OPCs)
Assay: Differentiation of purified oligodendrocyte precursor cells (OPCs) into mature oligodendric cells (MBP / PDGFRα immunostaining)
Format: cell-based, rat
Details: 48 hours
Protocol: The OPCs were purified from P7 rat brain cortices. Rodent brain cortices were diced and dissociated with papain at 37° C. After trituration, […] were resuspended in a panning buffer and incubated at room temperature sequentially on the three immunopanning dishes: Ran-2 and GalC were used for negative selection before positive selection with 04. OPCs were released from the panning dish using 0.05% Trypsin. OPCs were seeded onto PPL-coated coverslips at 200,000 per 25 mm circle coverslip in a chemically defined culture medium with PDGFa overnight.
Sodium Butyrate (NaB) was dissolved in sterile water and added into culture medium the next day to reach desire concentration. OPC coverslips were placed into 6-well dishes, 1 ml of NaB-containing culture medium without PDGFα was added to each well. Cells were cultured for 48 hours before fixation and immunostaining. PDGFRα antibody identifies OPCs and MBP (myelin basic protein) antibody labels differentiated oligodendrocytes. Percentage of MBP-positive cells out of all PDGFRα- and MBP-positives cells were quantified.
Examining a dose response for sodium butyrate on purified oligodendroglial cultures. Sodium butyrate was added to purified oligodendroglial cultures and cells were analyzed after 48 hours of treatment for effects on survival, proliferation and differentiation. Oligodendrocyte precursor cells were immunostained with PDGFRα shown in green, oligodendrocytes were immunostained with MBP in red, cell nuclei were labeled with DAPI in blue. Percentage of MBP-positive oligodendrocytes among all oligodendroglial cells was quantified at various concentrations of sodium butyrate. The asterisks represent significance based on Students t-test with the respective controls (*p<0.05, **p<0.01)

In the case of CCCC(=O)[O-].[Na+] [sodium butyrate, Sodium Butyrate], the “effect to promote OPC to differentiate into mature oligodendric cells (dose response)” value (50 nM to 250 μM) is reported as “dose-dependent manner”, the “number of oligodendric cells from OPC compared to the control (MBP immunohistochemistry, FIG. 7)” value (250 μM sodium butyrate) is reported as “statistically significant increase” and the “fold increase in the numbers of differentiated and matured oligodendric cells as compared to the control” value (250 μM sodium butyrate, OPCs from P7 rat brain cortices) is reported as 2.6 fold. For the same compound, the “increase in Oligo cells (percentage of MBP-positive cells) as compared to the control” value (each of the concentrations tested (50 nM, 500 nM, 5 μM, 50 μM, 250 μM)) was “statistically significant increase”.
